Several values for one entry are separate records, joined by “and”; a condition that tells them apart may be missing. Identical values can stand only once.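 Results reflect a 48-hour exposure of cells in 96-well plates to compound at five concentrations. GI50 is the concentration that inhibits growth by half.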 Activity calls are given as the source filed them. Rule as the data show it: active = GI50 up to about 1.1 µM and inactive = higher.
How the values were obtained:
Test in all cases: DTP human tumour cell line panel, 48 h
[1] = system: ACHN
[2] = system: BT-549
[3] = system: CAKI-1
[4] = system: DU-145
[5] = system: HCC 2998
[6] = system: HT-29
[7] = system: Hs-578T
[8] = system: IGROV-1
[9] = system: KM12
[10] = system: M14
[11] = system: MCF7
[12] = system: MDA-MB-435
[13] = system: MDA-N
[14] = system: Malme-3M
[15] = system: NCI-H226
[16] = system: NCI-H23
[17] = system: NCI-H522
[18] = system: NCI/ADR-RES
[19] = system: OVCAR-3
[20] = system: OVCAR-8
[21] = system: RPMI-8226
[22] = system: RXF 393
[23] = system: SF-268
[24] = system: SF-295
[25] = system: SK-MEL-28
[26] = system: SK-OV-3
[27] = system: SN12C
[28] = system: SNB-75
[29] = system: SW-620
[30] = system: T47D
[31] = system: TK-10
[32] = system: UACC-257
[33] = system: 786-0
[34] = system: A498
[35] = system: CCRF-CEM
[36] = system: COLO 205
[37] = system: EKVX
[38] = system: HCT-116
[39] = system: HCT-15
[40] = system: HL-60
[41] = system: K562
[42] = system: LOX IMVI
[43] = system: MDA-MB-231
[44] = system: MOLT-4
[45] = system: OVCAR-5
[46] = system: PC-3
[47] = system: SF-539
[48] = system: SK-MEL-2
[49] = system: SK-MEL-5
[50] = system: SNB-19
[51] = system: U-251
[52] = system: UACC-62
[53] = system: UO-31
[54] = system: A549
[55] = system: HOP-62
[56] = system: HOP-92
[57] = system: NCI-H460
[58] = system: OVCAR-4
[59] = system: SR

In the case of `CC(=O)c1c(-c2ccc(Cl)cc2)c(C#N)c(=S)n(C2OC(CO)C(O)C(O)C2O)c1-c1ccccc1` (configuration not stated), the GI50 [1] is reported as 55.2 µM (inactive) and 45.5 µM (inactive), the GI50 [2] is reported as > 100 µM (inactive) and the GI50 [3] is reported as 45.2 µM (inactive) and > 89.1 µM (inactive). For the same molecule, the GI50 [4] was > 100 µM (inactive) and > 93.3 µM (inactive), the GI50 [5] was > 100 µM (inactive) and > 83.8 µM (inactive) and the GI50 [6] was > 100 µM (inactive) and 52.1 µM (inactive). The GI50 [7] was > 100 µM (inactive), the GI50 [8] was 62.8 µM (inactive) and the GI50 [9] was > 100 µM (inactive) and > 68.9 µM (inactive). The GI50 [10] was > 100 µM (inactive), the GI50 [11] was > 100 µM (inactive) and > 71 µM (inactive) and the GI50 [12] was 77.6 µM (inactive). The GI50 [13] was 80.7 µM (inactive) and 48.2 µM (inactive), the GI50 [14] was > 100 µM (inactive) and the GI50 [15] was 61.4 µM (inactive). The GI50 [16] was > 100 µM (inactive), the GI50 [17] was > 100 µM (inactive) and 53.8 µM (inactive) and the GI50 [18] was > 100 µM (inactive) and 98.9 µM (inactive). The GI50 [19] was > 80.4 µM (inactive) and 64.9 µM (inactive), the GI50 [20] was > 100 µM (inactive) and > 57.3 µM (inactive) and the GI50 [21] was 31.9 µM (inactive). The GI50 [22] was 83.4 µM (inactive) and 75.5 µM (inactive), the GI50 [23] was 89.3 µM (inactive) and 61.5 µM (inactive) and the GI50 [24] was > 100 µM (inactive) and 70.6 µM (inactive). The GI50 [25] was 82.2 µM (inactive), the GI50 [26] was > 100 µM (inactive) and the GI50 [27] was > 100 µM (inactive) and > 85.7 µM (inactive). The GI50 [28] was 14.7 µM (inactive), the GI50 [29] was 59.6 µM (inactive) and the GI50 [30] was > 82.6 µM (inactive). For the same molecule, the GI50 [31] was > 100 µM (inactive) and the GI50 [32] was > 100 µM (inactive).

In the case of `O=C(c1ccco1)N(C(=O)N1CCCCC1)c1ccccc1`, the GI50 [33] is reported as > 100 µM (inactive), the GI50 [34] is reported as > 100 µM (inactive) and the GI50 [1] is reported as > 100 µM (inactive). The GI50 [2] was > 100 µM (inactive), the GI50 [3] was > 100 µM (inactive) and the GI50 [35] was > 100 µM (inactive). For the same molecule, the GI50 [36] was > 100 µM (inactive), the GI50 [4] was > 100 µM (inactive) and the GI50 [37] was > 100 µM (inactive). For the same molecule, the GI50 [38] was > 100 µM (inactive), the GI50 [39] was over 100 µM and the GI50 [40] was > 100 µM (inactive). The GI50 [6] was > 100 µM (inactive), the GI50 [7] was > 100 µM (inactive) and the GI50 [8] was > 100 µM (inactive). The GI50 [41] was > 100 µM (inactive), the GI50 [9] was > 100 µM (inactive) and the GI50 [42] was > 100 µM (inactive). The GI50 [10] was > 100 µM (inactive), the GI50 [11] was > 100 µM (inactive) and the GI50 [43] was > 100 µM (inactive). The GI50 [12] was > 100 µM (inactive), the GI50 [13] was > 100 µM (inactive) and the GI50 [44] was > 100 µM (inactive). The GI50 [14] was 41.2 µM (inactive), the GI50 [15] was > 100 µM (inactive) and the GI50 [16] was > 100 µM (inactive). For the same molecule, the GI50 [18] was > 100 µM (inactive), the GI50 [19] was > 100 µM (inactive) and the GI50 [45] was > 100 µM (inactive). The GI50 [20] was > 100 µM (inactive), the GI50 [46] was > 100 µM (inactive) and the GI50 [21] was > 100 µM (inactive). The GI50 [22] was 87.9 µM (inactive), the GI50 [23] was > 100 µM (inactive) and the GI50 [47] was > 100 µM (inactive). The GI50 [25] was > 100 µM (inactive), the GI50 [48] was > 100 µM (inactive) and the GI50 [49] was > 100 µM (inactive). The GI50 [26] was > 100 µM (inactive), the GI50 [27] was > 100 µM (inactive) and the GI50 [50] was > 100 µM (inactive). The GI50 [29] was > 100 µM (inactive), the GI50 [31] was > 100 µM (inactive) and the GI50 [51] was > 100 µM (inactive). For the same molecule, the GI50 [32] was > 100 µM (inactive), the GI50 [52] was > 100 µM (inactive) and the GI50 [53] was > 100 µM (inactive).

In the case of `CCOc1ccc(NC(=O)/C(=N\NC(C)(C)C)C2C(=O)Nc3ccccc3[S+]2[O-])cc1` (configuration not stated), the GI50 [33] is reported as > 100 µM (inactive), the GI50 [34] is reported as > 100 µM (inactive) and the GI50 [54] is reported as > 100 µM (inactive). The GI50 [1] was > 100 µM (inactive), the GI50 [2] was > 100 µM (inactive) and the GI50 [35] was 94.6 µM (inactive). For the same molecule, the GI50 [36] was > 100 µM (inactive), the GI50 [4] was > 100 µM (inactive) and the GI50 [37] was > 100 µM (inactive). For the same molecule, the GI50 [5] was > 100 µM (inactive), the GI50 [38] was > 100 µM (inactive) and the GI50 [39] was over 100 µM. The GI50 [40] was > 100 µM (inactive), the GI50 [55] was > 100 µM (inactive) and the GI50 [56] was > 100 µM (inactive). The GI50 [6] was > 100 µM (inactive), the GI50 [7] was > 100 µM (inactive) and the GI50 [8] was > 100 µM (inactive). The GI50 [41] was > 100 µM (inactive), the GI50 [9] was > 100 µM (inactive) and the GI50 [10] was > 100 µM (inactive). For the same molecule, the GI50 [11] was > 100 µM (inactive), the GI50 [12] was > 100 µM (inactive) and the GI50 [13] was > 100 µM (inactive). The GI50 [44] was > 100 µM (inactive), the GI50 [14] was > 100 µM (inactive) and the GI50 [15] was > 100 µM (inactive). For the same molecule, the GI50 [16] was > 100 µM (inactive), the GI50 [57] was > 100 µM (inactive) and the GI50 [17] was > 100 µM (inactive). The GI50 [18] was > 100 µM (inactive), the GI50 [19] was > 100 µM (inactive) and the GI50 [58] was > 100 µM (inactive). The GI50 [45] was > 100 µM (inactive), the GI50 [20] was > 100 µM (inactive) and the GI50 [46] was > 100 µM (inactive). The GI50 [21] was 20.7 µM (inactive), the GI50 [22] was > 100 µM (inactive) and the GI50 [23] was > 100 µM (inactive). The GI50 [24] was > 100 µM (inactive), the GI50 [47] was > 100 µM (inactive) and the GI50 [25] was > 100 µM (inactive). For the same molecule, the GI50 [48] was > 100 µM (inactive), the GI50 [49] was > 100 µM (inactive) and the GI50 [26] was > 100 µM (inactive). The GI50 [27] was > 100 µM (inactive), the GI50 [50] was > 100 µM (inactive) and the GI50 [28] was > 100 µM (inactive). The GI50 [59] was 45.1 µM (inactive), the GI50 [29] was > 100 µM (inactive) and the GI50 [30] was > 100 µM (inactive). The GI50 [31] was > 100 µM (inactive), the GI50 [51] was > 100 µM (inactive) and the GI50 [32] was > 100 µM (inactive). The GI50 [52] was > 100 µM (inactive) and the GI50 [53] was > 100 µM (inactive).

For `C=C1C(=O)O[C@H]2[C@H]3O[C@@H](C[C@@H]12)[C@@]1(C)CC[C@H](O1)[C@H](C)CCC[C@H]3C`, the GI50 [33] was 1.31 µM (inactive), the GI50 [34] was 1.71 µM (inactive) and the GI50 [54] was 2.16 µM (inactive). For the same molecule, the GI50 [1] was 1.51 µM (inactive), the GI50 [2] was 0.811 µM (active) and the GI50 [3] was 1.28 µM (inactive). For the same molecule, the GI50 [35] was 0.399 µM (active), the GI50 [36] was 1.75 µM (inactive) and the GI50 [4] was 1.52 µM (inactive). For the same molecule, the GI50 [37] was 1.44 µM (inactive), the GI50 [5] was 1.28 µM (inactive) and the GI50 [38] was 1.04 µM (active). For the same molecule, the GI50 [39] was 1.81 µM, the GI50 [40] was 0.237 µM (active) and the GI50 [55] was 4.74 µM (inactive). For the same molecule, the GI50 [56] was 1.43 µM (inactive), the GI50 [6] was 1.29 µM (inactive) and the GI50 [7] was 2.64 µM (inactive). For the same molecule, the GI50 [8] was 1.19 µM (inactive), the GI50 [41] was 1.44 µM (inactive) and the GI50 [9] was 2.18 µM (inactive). The GI50 [42] was 1.55 µM (inactive), the GI50 [11] was 1.77 µM (inactive) and the GI50 [43] was 1.65 µM (inactive). For the same molecule, the GI50 [12] was 1.32 µM (inactive), the GI50 [44] was 1.23 µM (inactive) and the GI50 [14] was 1.72 µM (inactive). The GI50 [15] was 1.53 µM (inactive), the GI50 [16] was 1.75 µM (inactive) and the GI50 [57] was 1.76 µM (inactive). For the same molecule, the GI50 [17] was 1.42 µM (inactive), the GI50 [18] was 1.53 µM (inactive) and the GI50 [19] was 1.1 µM (active). For the same molecule, the GI50 [58] was 1.58 µM (inactive), the GI50 [45] was 1.67 µM (inactive) and the GI50 [20] was 1.38 µM (inactive). For the same molecule, the GI50 [46] was 1.61 µM (inactive), the GI50 [21] was 0.512 µM (active) and the GI50 [22] was 2.15 µM (inactive). For the same molecule, the GI50 [23] was 1.67 µM (inactive), the GI50 [24] was 4.82 µM (inactive) and the GI50 [25] was 1.63 µM (inactive). For the same molecule, the GI50 [48] was 2.09 µM (inactive), the GI50 [49] was 1.42 µM (inactive) and the GI50 [26] was 7.38 µM (inactive). The GI50 [27] was 2.22 µM (inactive), the GI50 [50] was 10.1 µM (inactive) and the GI50 [28] was 1.63 µM (inactive). For the same molecule, the GI50 [59] was 0.148 µM (active), the GI50 [29] was 1.46 µM (inactive) and the GI50 [30] was 2.21 µM (inactive). For the same molecule, the GI50 [31] was 1.62 µM (inactive), the GI50 [51] was 1.5 µM (inactive) and the GI50 [32] was 1.91 µM (inactive). For the same molecule, the GI50 [52] was 1.81 µM (inactive) and the GI50 [53] was 1.56 µM (inactive).

From ChEMBL document CHEMBL1201862, “PubChem BioAssay data set” (2004)
